Assay results from PMC4467156, “A new chemical inhibitor of angiogenesis and tumorigenesis that targets the VEGF signaling pathway upstream of Ras” (Oncotarget, 2015).

Legend:
HMVECd cells = experiment: Scratch wound closure assay, primary HMVECd; format: cell-based; conditions: Homo sapiens, Endothelial cell; primary dermal microvascular endothelial cells, 10% FCS
Description: Figure 3 Endothelial cell-specific inhibition of wound closure by COB223 The dose-dependent effect of COB223 on cellular wound closure was measured as described in Material and Methods on either HMVECd or on 3T3 cells. The results are expressed as the percentage of wound closure (with closure observed in the presence of 10% FCS taken as 100%) : mean values +/− SD from three experiments.
(§1) Confluent cell monolayers were wounded with a plastic pipet tip, washed gently with phosphate buffer saline (PBS) and treated with complete media containing molecules, as indicated. Cells were placed at 37°C into the incubator and photographed at indicated times. Quantitation of closure of the monolayer was performed using the NIH Image J program (http://rsbweb.nih.gov/ij/). Results are expressed as percentage of wound closure at t = 24 h as compared to the initial wound at t = 0 h.

HUVEC cells [1] = experiment: Scratch assay on HUVEC with or without mitomycin C; format: cell-based, human; conditions: HUVEC, 25 μM COB223, mitomycin C 2 μg/mL pretreatment, 24 h and 48 h
Description: as §1, with “0 h. […]” for “0 h.”
www.impactjournals.com/oncotarget/ Oncotarget, Supplementary Materials 2015 […]
Figure S1: Effect of COB223 on endothelial cell migration. (A) Scratch assay: Confluent HUVEC cells were pretreated for 24 h without (CTL) or with 2 μg/mL of mitomycin C before a wound was made in the cell monolayer. After wounding, cells were incubated at 37°C in the absence or the presence of 25 μM COB223. Wound closure was measured after 24 h and 48 h of incubation as described in Material and Methods. […]
(B) Boyden chamber assay: The technique is described in Material and Methods. We measured the passage of fluorescently labeled HUVEC cells through a 3 μm-porous membrane in response to fetal calf serum used as a chemo-attractant. […] The Figure represents the mean fluorescence ± SD of duplicate determinations after 24 h or 48h of incubation from two independent experiments. […]

HUVEC cells [2] = experiment: 3H-thymidine incorporation, HUVEC; format: cell-based, human; conditions: HUVEC, 24 h
Description: Cells were treated with molecules in complete medium. After 22 h, 1 μCi per well H^3 thymidine was added for 2 hours. Cells are then fixed by 10% trichloroacetic acid and harvested with 0.2N NaOH, 1% SDS. Radioactivity was measured in a beta counter.

Met = Met (Homo sapiens, UniProt P08581); experiment: In vitro kinase assay Met; format: biochemical; conditions: concentrations up to 50 μM
Description: (§2) We first wondered whether COB223 required to be internalized to exert its biological effect. For this, we synthesized a covalent complex between BSA and COB223 and purified it. […] In vitro kinase assays were performed with a panel of purified protein-kinases involved in mitogenic signaling, including VEGFR2, FGFR1, FGFR2, PDGFRß, Met, Raf, MEK1, ERK1, ERK2, PKCα, PKCβI, PKCβII, PKCζ as indicated in Table 2. […] We then analyzed the effect of COB223 on VEGF-induced phosphorylations of VEGFR2, MEK and ERK1/2 (Figure 9). […] (Figure 9A, 9B). […] It was also specific of the p42/p44 MAP kinase pathway as activation of p38 MAP kinase phosphorylation in HUVEC cells by VEGF or serum was unaffected by COB223 (data not shown). The activation of src phosphorylation by VEGF in HUVECs was also unaffected by COB223 (data not shown).

PKCβII = PKCβII (Homo sapiens, UniProt P05771); experiment: In vitro kinase assay PKCβII; format: biochemical; conditions: concentrations up to 50 μM
Description: as §2

src phosphorylation = src phosphorylation in HUVECs; format: cell-based, human; conditions: data not shown
ERK1/2 phosphorylation = ERK1/2 phosphorylation in MCF-10A cells expressing oncogenic RasG12V; format: cell-based; conditions: 25 μM COB223
Description: Figure 11 Effect of COB223 on mitogenic or oncogenic activation of the Ras /MEK/ERK signaling pathway (A) Serum-starved HUVEC cells were incubated for 15 min in the presence of 10 ng/mL VEGF-A and in the absence or the presence of 25 μM COB223. The phosphorylations of PLCγ on tyrosine 783, of Raf on serine 338 or on serine 259 and of ERK1/2 were then analyzed by Western blot analysis of the cell lysates as described in Material and Methods. Western blots for total PLCγ, Raf and ERK1/2 were used as loading controls. (B) MCF10A cells overexpressing an oncogenic version of Ras (MCF10A-RasG12V) were treated for the indicated periods of time by 25 μM COB223. Total ERK1/2 and phospho-ERK1/2 were then visualized by Western blotting of the cell extracts. Non-treated regular MCF10A cells were analyzed as a control (first lane). (C) CCL-39 fibroblasts expressing a constitutively active Raf in an estrogen-responsive manner were stimulated for 3 h with estradiol and treated for 15 or 30 min with 25 μM COB223. Total ERK1/2 and phospho-ERK1/2 were then visualized by Western blotting of the cell extracts. Non-treated cells were analyzed as a control (left lanes).

Chain of Met (P08581 25-1390): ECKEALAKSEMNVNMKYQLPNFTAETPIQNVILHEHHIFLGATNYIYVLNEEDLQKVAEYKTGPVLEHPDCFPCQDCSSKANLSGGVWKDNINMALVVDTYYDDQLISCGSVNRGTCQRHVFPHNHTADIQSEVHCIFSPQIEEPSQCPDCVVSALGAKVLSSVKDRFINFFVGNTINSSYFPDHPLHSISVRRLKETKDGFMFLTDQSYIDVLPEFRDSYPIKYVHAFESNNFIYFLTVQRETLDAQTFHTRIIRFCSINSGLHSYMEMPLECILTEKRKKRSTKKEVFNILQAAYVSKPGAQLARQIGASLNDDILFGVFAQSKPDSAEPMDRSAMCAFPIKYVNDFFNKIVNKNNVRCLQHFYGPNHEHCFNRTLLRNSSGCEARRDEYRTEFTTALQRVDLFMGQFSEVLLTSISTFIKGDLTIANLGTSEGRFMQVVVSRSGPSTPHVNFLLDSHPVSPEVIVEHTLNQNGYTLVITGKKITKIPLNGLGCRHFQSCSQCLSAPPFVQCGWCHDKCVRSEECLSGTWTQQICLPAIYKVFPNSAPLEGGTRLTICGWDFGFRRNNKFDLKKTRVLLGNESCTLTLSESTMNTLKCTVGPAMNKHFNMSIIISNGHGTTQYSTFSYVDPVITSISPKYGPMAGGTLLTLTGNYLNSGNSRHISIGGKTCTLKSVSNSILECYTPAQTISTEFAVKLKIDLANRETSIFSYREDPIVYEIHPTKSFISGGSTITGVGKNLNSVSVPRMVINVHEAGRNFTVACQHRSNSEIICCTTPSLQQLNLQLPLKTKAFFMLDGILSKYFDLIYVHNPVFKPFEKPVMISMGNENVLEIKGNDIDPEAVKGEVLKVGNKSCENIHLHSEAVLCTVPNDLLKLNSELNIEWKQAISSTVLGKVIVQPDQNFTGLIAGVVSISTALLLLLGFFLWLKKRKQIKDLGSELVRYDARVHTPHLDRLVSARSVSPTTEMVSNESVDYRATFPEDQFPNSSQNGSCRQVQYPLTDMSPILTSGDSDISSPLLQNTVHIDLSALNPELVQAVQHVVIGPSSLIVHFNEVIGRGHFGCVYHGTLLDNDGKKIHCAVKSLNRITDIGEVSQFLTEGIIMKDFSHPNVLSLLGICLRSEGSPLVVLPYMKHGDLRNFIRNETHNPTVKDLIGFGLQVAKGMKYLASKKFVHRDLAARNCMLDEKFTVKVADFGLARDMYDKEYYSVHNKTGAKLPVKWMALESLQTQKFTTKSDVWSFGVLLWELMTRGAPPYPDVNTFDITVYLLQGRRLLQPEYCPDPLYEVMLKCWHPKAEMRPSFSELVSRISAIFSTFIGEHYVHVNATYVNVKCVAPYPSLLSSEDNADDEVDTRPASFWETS
Chain of PKCβII (P05771 1-673 isoform P05771-2): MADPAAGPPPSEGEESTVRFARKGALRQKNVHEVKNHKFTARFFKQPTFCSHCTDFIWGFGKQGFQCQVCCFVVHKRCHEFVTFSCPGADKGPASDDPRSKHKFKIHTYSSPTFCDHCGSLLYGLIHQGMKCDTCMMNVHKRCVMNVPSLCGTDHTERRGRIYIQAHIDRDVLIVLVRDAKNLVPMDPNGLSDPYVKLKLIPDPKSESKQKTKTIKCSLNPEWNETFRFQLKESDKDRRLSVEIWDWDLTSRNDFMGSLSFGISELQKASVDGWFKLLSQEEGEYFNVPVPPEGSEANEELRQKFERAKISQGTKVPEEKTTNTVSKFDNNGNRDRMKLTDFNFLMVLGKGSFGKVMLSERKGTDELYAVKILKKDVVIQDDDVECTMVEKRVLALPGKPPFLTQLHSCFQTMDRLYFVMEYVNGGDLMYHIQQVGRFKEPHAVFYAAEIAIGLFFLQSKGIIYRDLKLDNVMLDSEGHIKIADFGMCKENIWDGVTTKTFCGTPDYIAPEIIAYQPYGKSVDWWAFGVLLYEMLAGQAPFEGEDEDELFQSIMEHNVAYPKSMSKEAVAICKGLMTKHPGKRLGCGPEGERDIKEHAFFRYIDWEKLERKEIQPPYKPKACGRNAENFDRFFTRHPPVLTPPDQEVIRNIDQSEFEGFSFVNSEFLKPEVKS

## CN(C)c1cccc2c(S(=O)(=O)NCCCN3CCN(CCCNC(=O)OC(C)(C)C)CC3)cccc12 [COB223, tert-Butyl 3-(4-(3-(5-(dimethylamino)naphthalene-1-sulfonamido)propyl)piperazin-1-yl) propylcarbamate]
HMVECd cells
  EC50: 25 µM
HUVEC cells [1]
  endothelial cell wound closure in the presence of mitomycin C: still inhibited
HUVEC cells [2]
  concentrations inhibiting thymidine incorporation: above 5 μM
Met
  kinase inhibition: None of them was inhibited
PKCβII
  kinase inhibition: None of them was inhibited
Src phosphorylation
  activation of src phosphorylation by VEGF: unaffected
ERK1/2 phosphorylation
  constitutive phosphorylation of ERK1/2 induced by oncogenic RasG12V: did not modify
